Laboratory results as given in patent US5114464A, “4-quinoxalinyloxyphenoxyalkylinitrile herbicides” (Uniroyal Chemical Company, Inc., priority 1990, dated 1992).

Legend:
green foxtail [1] = assay: Postemergence control of green foxtail (Table II); type: in vivo, Setaria viridis (L.) Beauv.; settings: 3000 ppm, two weeks after treatment
Description: (§1) To illustrate the effectiveness of the Compounds 1 and 2 of this invention as preemergence herbicides, 300 mg of each compound were dissolved in 10 ml acetone to which 30 mg of an emulsifying agent, ethoxylated sorbitan monolaurate, were added. The solution was diluted to 100 ml with distilled water. Ten milliliters of the 3000 ppm solution were diluted to 250 ppm with distilled water. The chemical was applied at the rate of 10 lb/A (11.2 kg/ha) by drenching 46 ml of the 250 ppm solution on the surface of soil in 41/2inch (11.25 cm) plastic pots wherein seeds of the following weeds had been planted: velvet leaf (Abutilon theoohrasti Medic.) (VL), prickly sida (sida soinosa L.) (PS), tall morningglory (Ioomea purourea L. Roth) (TM), switchgrass (Panicum viroatum L.) (SG), barnyard grass (Echinolchloa crus-oalli (L.) Beauv.) (BG), and green foxtail (Setaria viridis) (L.) Beauv.) (GF). The percent control of the weeds compared to untreated checks was determined two weeks after treatment.
(§2) To test the effectiveness of Compounds 1 and 2 of this invention as postemergence herbicides, a 3000 ppm solution of each compound (produced in accordance with the process described under Example 3) was atomized employing a DEVILBISS [trademark] sprayer, wetting the foliage to the drip point. […] The percent weed control was evaluated two weeks after treatment.

green foxtail [2] = assay: Postemergence selectivity, greenhouse: green foxtail (Table V); type: in vivo, Setaria viridis (L.) Beauv.; settings: 2 weeks
Description: (§3) To illustrate the effectiveness of Compound 1 of this invention as a corn-safe selective postemergence herbicide, the 3000 ppm solution prepared as described in Example 3 was diluted with distilled water to 250 ppm and applied to foliage as described in Example 3. The commercial product Hoelon 3EC® (Hoechst) was included as a standard. The foliage included weedy grasses described in Example 3 in addition to the crops corn, soybeans and cotton. The foliage was planted in a Connecticut greenhouse on May 16, and was treated on May 26. The percent weed control and crop injury was determined on Jun. 12.
(§4) To illustrate the effectiveness of Compound 2 of this invention as a corn-safe selective postemergence herbicide, various concentrations of the compound were prepared and applied as in Example 5 to the following weeds and crops: velvet leaf (Abutilon theoohrasti Medic.) (VL), prickly sida (Sida spinosa L.) (PS), wild morningglory (Ipomopa sp.) (WM), barnyard grass (Echinolchloa crus-galli (L.) Beauv.) (BG), green foxtail (Setaria viridis) (L.) Beauv.) (GF), wild oat (Avena fatua L.) (WO), corn (CR), soybean (SO), cotton (CT) and rice (RC). The weeds and crops were planted in mid-September in a Connecticut greenhouse and were treated eight days later. The percent weed control and crop injury was determined 2 weeks after treatment.

wild morningglory = assay: Postemergence selectivity, greenhouse: wild morningglory (Table V); type: in vivo, Ipomopa sp.; settings: 2 weeks
Description: as §3, §4

velvet leaf [3] = assay: Postemergence selectivity, greenhouse: velvet leaf (Table V); type: in vivo, Abutilon theoohrasti Medic.; settings: 2 weeks
Description: as §3, §4

switchgrass [4] = assay: Preemergence control of switchgrass (Table I); type: in vivo, Panicum viroatum L.; settings: 11.2 kg/ha, two weeks after treatment
Description: as §1

rice = assay: Postemergence selectivity, greenhouse: rice injury (Table V); type: in vivo; settings: 2 weeks
Description: as §3, §4

barnyard grass [5] = assay: Postemergence selectivity, greenhouse: barnyard grass (Table V); type: in vivo, Echinolchloa crus-galli (L.) Beauv.; settings: 2 weeks
Description: as §3, §4

velvet leaf [6] = assay: Postemergence control of velvet leaf (Table II); type: in vivo, Abutilon theoohrasti Medic.; settings: 3000 ppm, two weeks after treatment
Description: as §1, §2

soybean = assay: Postemergence selectivity, greenhouse: soybean injury (Table V); type: in vivo; settings: 2 weeks
Description: as §3, §4

green foxtail [7] = assay: Preemergence control of green foxtail (Table I); type: in vivo, Setaria viridis (L.) Beauv.; settings: 11.2 kg/ha, two weeks after treatment
Description: as §1

weeds [8] = assay: Postemergence control, summary statement; type: in vivo; settings: 3000 ppm
Description: as §1, §2

velvet leaf [9] = assay: Preemergence control of velvet leaf (Table I); type: in vivo, Abutilon theoohrasti Medic.; settings: 11.2 kg/ha, two weeks after treatment
Description: as §1

tall morningglory [10] = assay: Preemergence control of tall morningglory (Table I); type: in vivo, Ioomea purourea L. Roth; settings: 11.2 kg/ha, two weeks after treatment
Description: as §1

cotton = assay: Postemergence selectivity, greenhouse: cotton injury (Table V); type: in vivo; settings: 2 weeks
Description: as §3, §4

prickly sida [11] = assay: Preemergence control of prickly sida (Table I); type: in vivo, sida soinosa L.; settings: 11.2 kg/ha, two weeks after treatment
Description: as §1

weeds [12] = assay: Preemergence control, summary statement; type: in vivo; settings: 11.2 kg/ha
Description: as §1

prickly sida [13] = assay: Postemergence selectivity, greenhouse: prickly sida (Table V); type: in vivo, Sida spinosa L.; settings: 2 weeks
Description: as §3, §4

tall morningglory [14] = assay: Postemergence control of tall morningglory (Table II); type: in vivo, Ioomea purourea L. Roth; settings: 3000 ppm, two weeks after treatment
Description: as §1, §2

grass weeds = assay: Postemergence selectivity greenhouse (Example 7), summary for grass weeds; type: in vivo; settings: 1000 to 3000 ppm
Description: as §3, §4

corn = assay: Postemergence selectivity, greenhouse: corn injury (Table V); type: in vivo; settings: for Percent crop injury CR: postemergence, 2 weeks
Description: as §3, §4

wild oat = assay: Postemergence selectivity, greenhouse: wild oat (Table V); type: in vivo, Avena fatua L.; settings: 2 weeks
Description: as §3, §4

barnyard grass [15] = assay: Preemergence control of barnyard grass (Table I); type: in vivo, Echinolchloa crus-oalli (L.) Beauv.; settings: 11.2 kg/ha, two weeks after treatment
Description: as §1

switchgrass [16] = assay: Postemergence control of switchgrass (Table II); type: in vivo, Panicum viroatum L.; settings: 3000 ppm, two weeks after treatment
Description: as §1, §2

barnyard grass [17] = assay: Postemergence control of barnyard grass (Table II); type: in vivo, Echinolchloa crus-oalli (L.) Beauv.; settings: 3000 ppm, two weeks after treatment
Description: as §1, §2

prickly sida [18] = assay: Postemergence control of prickly sida (Table II); type: in vivo, sida soinosa L.; settings: 3000 ppm, two weeks after treatment
Description: as §1, §2

Question: Which results are given for `CC(C#N)Oc1ccc(Oc2cnc3cc(Cl)ccc3n2)cc1` (stereo not shown) [Compound 2, 2-[4-(6-chloro-2-quinoxalinyloxy)phenoxy]propionitrile]?
Answer: % Control GF (green foxtail [1]): 95%; Percent Weed Control GF (green foxtail [2]; 1000 ppm): 100%; Percent Weed Control GF (green foxtail [2]; 2000 ppm): 100%; Percent Weed Control GF (green foxtail [2]; 3000 ppm): 100%; Percent Weed Control WM (wild morningglory; 1000 ppm): 10%; Percent Weed Control WM (wild morningglory; 2000 ppm): 10%; Percent Weed Control WM (wild morningglory; 3000 ppm): 20%; Percent Weed Control VL (velvet leaf [3]; 1000 ppm): 90%; Percent Weed Control VL (velvet leaf [3]; 2000 ppm): 90%; Percent Weed Control VL (velvet leaf [3]; 3000 ppm): 90%; % Control SG (switchgrass [4]): 100%; Percent crop injury RC (rice; 1000 ppm): 50%; Percent crop injury RC (rice; 2000 ppm): 50%; Percent crop injury RC (rice; 3000 ppm): 50%; Percent Weed Control BG (barnyard grass [5]; 1000 ppm): 85%; Percent Weed Control BG (barnyard grass [5]; 2000 ppm): 85%; Percent Weed Control BG (barnyard grass [5]; 3000 ppm): 95%; % Control VL (velvet leaf [6]): 95%; Percent crop injury SO (soybean; 1000 ppm): 20%; Percent crop injury SO (soybean; 2000 ppm): 20%; Percent crop injury SO (soybean; 3000 ppm): 20%; % Control GF (green foxtail [7]): 25%; postemergent herbicidal control (weeds [8]): desirable postemergent herbicidal control; % Control VL (velvet leaf [9]): 0%; % Control TM (tall morningglory [10]): 0%; Percent crop injury CT (cotton; 1000 ppm): 20%; Percent crop injury CT (cotton; 2000 ppm): 20%; Percent crop injury CT (cotton; 3000 ppm): 20%; % Control PS (prickly sida [11]): 0%; herbicidal efficacy (weeds [12]): good to excellent herbicidal efficacy; Percent Weed Control PS (prickly sida [13]; 1000 ppm): 0%; Percent Weed Control PS (prickly sida [13]; 2000 ppm): 0%; Percent Weed Control PS (prickly sida [13]; 3000 ppm): 0%; % Control TM (tall morningglory [14]): 55%; control of several grass weeds (grass weeds): good control of several grass weeds; Percent crop injury CR (corn; 1000 ppm): 0%; corn safety (corn; 1000 to 3000 ppm): substantially innocuous to corn; Percent crop injury CR (corn; 2000 ppm): 0%; Percent crop injury CR (corn; 3000 ppm): 0%; Percent Weed Control WO (wild oat; 1000 ppm): 0%; Percent Weed Control WO (wild oat; 2000 ppm): 0%; Percent Weed Control WO (wild oat; 3000 ppm): 10%; % Control BG (barnyard grass [15]): 50%; % Control SG (switchgrass [16]): 35%; % Control BG (barnyard grass [17]): 65%; % Control PS (prickly sida [18]): 75%
